Like-named read-outs stand apart in the source and are kept apart here.
Tests used:
NAMPT = biological target: T1, NAMPT (Homo sapiens, UniProt P43490); assay: Biochemical inhibition assay: NAMPT enzymatic reaction, NMN quantified by mass spectrometry; settings: read-out: Biochem IC50
T1 construct: His tag; host or cells: E. coli
Outline: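 Inhibition of E. coli-expressed His-tagged human NAMPT, measured as NMN formation by mass spectrometry after a 30 min room-temperature reaction containing 1 μM NAM, 100 μM PRPP and 2.5 mM ATP.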

A2780 cells = assay: In-vitro cell proliferation assay (SRB), A2780 cells; type: cell-based; settings: A2780 cells, 72 hours, read-out: A2780 IC50
Outline: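 SRB read-out: 6% TCA fix 1 h at 4° C., stain, Tris solubilize, A570. Media-only background subtracted; % inhibition from two compound concentrations.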

[1] = Homo sapiens, A2780, 72 h, SRB assay

T1 sequence (P43490 whole entry): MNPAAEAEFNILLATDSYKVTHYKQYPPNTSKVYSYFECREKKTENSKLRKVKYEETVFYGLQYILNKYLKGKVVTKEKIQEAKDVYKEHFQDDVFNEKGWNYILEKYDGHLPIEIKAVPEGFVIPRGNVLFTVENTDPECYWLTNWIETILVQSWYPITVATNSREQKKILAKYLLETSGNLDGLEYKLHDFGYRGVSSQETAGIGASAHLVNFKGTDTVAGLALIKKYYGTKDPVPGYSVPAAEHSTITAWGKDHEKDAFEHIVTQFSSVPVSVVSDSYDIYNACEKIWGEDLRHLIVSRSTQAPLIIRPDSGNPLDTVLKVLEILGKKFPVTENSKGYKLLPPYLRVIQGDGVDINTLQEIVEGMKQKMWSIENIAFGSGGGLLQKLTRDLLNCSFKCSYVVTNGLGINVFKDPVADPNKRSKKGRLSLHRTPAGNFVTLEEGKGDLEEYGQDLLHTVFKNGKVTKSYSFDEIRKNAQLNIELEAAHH

Compound	IC50 (NAMPT; NAMPT enzymatic reaction) [nM]	IC50 (A2780 cells; Homo sapiens, A2780, 72 h, SRB) [nM]	IC50 (NAMPT; NAMPT enzymatic assay) [nM]	IC50 (A2780 cells; [1]) [nM]	IC50 (A2780 cells; SRB) [nM]
COc1cccc(S(=O)(=O)c2ccc(CNC(=O)c3ccc4nccn4c3)cc2)c1OC [N-({4-[(2,3-dimethoxybenzene)sulfonyl]phenyl}methyl)imidazo[1,2-a]pyridine-6-carboxamide]	68.7	24.9			
O=C(NCc1ccc(S(=O)(=O)c2ccccc2Cl)cc1)c1ccc2nccn2c1 [N-({4-[(2-chlorobenzene)sulfonyl]phenyl}methyl)imidazo[1,2-a]pyridine-6-carboxamide]	24.1	56.7			
O=C(NCc1ccc(S(=O)(=O)c2cccc(-c3ccc(F)c(F)c3)n2)cc1)c1cnc2[nH]ncc2c1 [N-({4-[6-(3,4-difluorophenyl)pyridine-2-sulfonyl]phenyl}methyl)-1H-pyrazolo[3,4-b]pyridine-5-carboxamide]		41	17.8		
COc1cc(S(=O)(=O)c2ccc(CNC(=O)c3cc4ccncc4o3)cc2)ccc1C	4.6	3.1			
CCOc1ccc(NS(=O)(=O)c2ccc(CNC(=O)c3cc4cnccc4[nH]3)cc2)c(F)c1 [N-({4-[(4-ethoxy-2-fluorophenyl)sulfamoyl]phenyl}methyl)-1H-pyrrolo[3,2-c]pyridine-2-carboxamide]	154			1600	
CCCCOc1ccc(S(=O)(=O)c2ccc(CNC(=O)c3ccc4nccn4c3)cc2)cc1	3.8	2.8			
COc1cc(S(=O)(=O)c2ccc(CNC(=O)c3cnc4nccn4c3)cc2)ccc1F	4.9	10.8			
O=C(NCc1ccc(S(=O)(=O)c2ccc3c(c2)OCO3)cc1)c1cc2ccncc2s1 [N-{[4-(2H-1,3-benzodioxole-5-sulfonyl)phenyl]methyl}thieno[2,3-c]pyridine-2-carboxamide]	3			2.5	
Cc1cncc(S(=O)(=O)c2ccc(CNC(=O)c3cc4ccncc4s3)cc2)n1 [N-{[4-(6-methylpyrazine-2-sulfonyl)phenyl]methyl}thieno[2,3-c]pyridine-2-carboxamide]		5.1	4.8		
CCS(=O)(=O)c1cccc(S(=O)(=O)c2ccc(CNC(=O)c3cc4ccncc4s3)cc2)c1		5.4	2.8		
O=C(NCc1ccc(S(=O)(=O)c2ccc(C(F)(F)F)c(F)c2)cc1)c1cnc2nccn2c1		6.9	4.1		
O=C(NCc1ccc(S(=O)(=O)c2ccc(OCCN3CCCC3)cc2)cc1)c1cc2cnccc2[nH]1			3		2.3
O=C(NCc1ccc(S(=O)(=O)c2cccc(OCCN3CCOCC3)c2)cc1)c1ccc2nccn2c1		3.4	6.8		
CCOc1ccc(S(=O)(=O)c2ccc(CNC(=O)c3cnc4nccn4c3)cc2)c(C)c1 [N-({4-[(4-ethoxy-2-methylbenzene)sulfonyl]phenyl}methyl)imidazo[1,2-a]pyrimidine-6-carboxamide]	11.7	60.7			
CCCCOc1cccc(S(=O)(=O)c2ccc(CNC(=O)c3cnc4[nH]ncc4c3)cc2)c1 [N-({4-[(3-butoxybenzene)sulfonyl]phenyl}methyl)-1H-pyrazolo[3,4-b]pyridine-5-carboxamide]	38.4	67.5			
COc1cc(S(=O)(=O)c2ccc(CNC(=O)c3cnc4[nH]ncc4c3)cc2)ccc1F [N-({4-[(4-fluoro-3-methoxybenzene)sulfonyl]phenyl}methyl)-1H-pyrazolo[3,4-b]pyridine-5-carboxamide]	23.9	11.5			
CCOc1ccc(S(=O)(=O)c2ccc(CNC(=O)c3cc4cnccc4[nH]3)cc2)cc1F	20.5	5.4			
CCN(C)c1ncc(S(=O)(=O)c2ccc(CNC(=O)c3cc4ccncc4s3)cc2)s1 [N-[(4-{2-[ethyl(methyl)amino]-1,3-thiazole-5-sulfonyl}phenyl)methyl]thieno[2,3-c]pyridine-2-carboxamide]		1.2	2.9		
O=C(NCc1ccc(S(=O)(=O)c2ccccc2C(F)(F)F)cc1)c1cc2cnccc2[nH]1 [N-[(4-{[2-(trifluoromethyl)benzene]sulfonyl}phenyl)methyl]-1H-pyrrolo[3,2-c]pyridine-2-carboxamide]	22			25	
O=C(NCc1ccc(S(=O)(=O)N2CCCCC2)cc1)c1ccn2ccnc2c1 [N-{[4-(piperidine-1-sulfonyl)phenyl]methyl}imidazo[1,2-a]pyridine-7-carboxamide]	> 100			> 500	
O=C(NCc1ccc(S(=O)(=O)c2cccc3cccnc23)cc1)c1ccc2nccn2c1 [N-{[4-(quinoline-8-sulfonyl)phenyl]methyl}imidazo[1,2-a]pyridine-6-carboxamide]		5.5	9.8		
Cc1cc(F)ccc1S(=O)(=O)c1ccc(CNC(=O)c2cnc3nccn3c2)cc1	13	100 to 1000			
Cc1cc(S(=O)(=O)c2ccc(CNC(=O)c3cnc4[nH]ncc4c3)cc2)c(C)cc1F [N-({4-[(4-fluoro-2,5-dimethylbenzene)sulfonyl]phenyl}methyl)-1H-pyrazolo[3,4-b]pyridine-5-carboxamide]	37.3	45.9			

Compound	IC50 (NAMPT; NAMPT enzymatic reaction) [nM]	IC50 (A2780 cells; Homo sapiens, A2780, 72 h, SRB) [nM]	IC50 (NAMPT; NAMPT enzymatic assay) [nM]	IC50 (A2780 cells; [1]) [nM]	IC50 (A2780 cells; SRB) [nM]
COc1ccc(OC)c(S(=O)(=O)c2ccc(CNC(=O)c3cnc4nccn4c3)cc2)c1 [N-({4-[(2,5-dimethoxybenzene)sulfonyl]phenyl}methyl)imidazo[1,2-a]pyrimidine-6-carboxamide]	6.9	45.7			
O=C(NCc1ccc(S(=O)(=O)c2cccc(F)c2)cc1)c1cc2cnccc2[nH]1 [N-({4-[(3-fluorobenzene)sulfonyl]phenyl}methyl)-1H-pyrrolo[3,2-c]pyridine-2-carboxamide]	9			10	
O=C(NCc1ccc(S(=O)(=O)c2cccc(N3CCCCC3)c2)cc1)c1cnc2[nH]ncc2c1		14	53.6		
O=C(NCc1ccc(S(=O)(=O)c2cnc3ccc(Cl)cn23)cc1)c1cnc2[nH]ncc2c1 [N-[(4-{6-chloroimidazo[1,2-a]pyridine-3-sulfonyl}phenyl)methyl]-1H-pyrazolo[3,4-b]pyridine-5-carboxamide]		0.8	3.3		
O=C(NCc1ccc(S(=O)(=O)c2cccc(F)c2)cc1)c1cnc2[nH]ncc2c1	33.9	25.3			
Cc1ccc(S(=O)(=O)c2ccc(CNC(=O)c3cc4ccncc4o3)cc2)cc1F	14	3.3			
O=C(NCc1ccc(S(=O)(=O)c2cc(Cl)cc(CO)c2)cc1)c1ccc2nccn2c1		1.4	5.8		
COc1ccc(OC)c(S(=O)(=O)c2ccc(CNC(=O)c3cnc4[nH]ncc4c3)cc2)c1OC [N-({4-[(2,3,6-trimethoxybenzene)sulfonyl]phenyl}methyl)-1H-pyrazolo[3,4-b]pyridine-5-carboxamide]	79.7	66.3			
O=C(NCc1ccc(S(=O)(=O)c2cccc3ccccc23)cc1)c1cnc2nccn2c1 [N-{[4-(naphthalene-1-sulfonyl)phenyl]methyl}imidazo[1,2-a]pyrimidine-6-carboxamide]		3.6	2.9		
CCNC(=O)c1cccc(S(=O)(=O)c2ccc(CNC(=O)c3cc4ccncc4o3)cc2)c1		6.4	6		
Cc1ccc(S(=O)(=O)c2ccc(CNC(=O)c3cc4ccncc4s3)cc2)c(C)c1 [N-({4-[(2,4-dimethylbenzene)sulfonyl]phenyl}methyl)thieno[2,3-c]pyridine-2-carboxamide]		22.2	12		
CCOc1cc(S(=O)(=O)c2ccc(CNC(=O)c3cnc4[nH]ncc4c3)cc2)ccc1F [N-({4-[(3-ethoxy-4-fluorobenzene)sulfonyl]phenyl}methyl)-1H-pyrazolo[3,4-b]pyridine-5-carboxamide]	26.1	12			
O=C(NCc1ccc(S(=O)(=O)c2cccc(-n3cccn3)c2)cc1)c1cc2ccncc2s1 [N-[(4-{[3-(1H-pyrazol-1-yl)benzene]sulfonyl}phenyl)methyl]thieno[2,3-c]pyridine-2-carboxamide]		0.1	1.5		
CCCCOc1ccc(S(=O)(=O)c2ccc(CNC(=O)c3cc4ccncc4s3)cc2)cc1F [N-({4-[(4-butoxy-3-fluorobenzene)sulfonyl]phenyl}methyl)thieno[2,3-c]pyridine-2-carboxamide]	4.7	12.6			
Cc1ccncc1S(=O)(=O)c1ccc(CNC(=O)c2cnc3[nH]ncc3c2)cc1 [N-{[4-(4-methylpyridine-3-sulfonyl)phenyl]methyl}-1H-pyrazolo[3,4-b]pyridine-5-carboxamide]		271	100 to 1000		
CCCCOc1ccc(S(=O)(=O)c2ccc(CNC(=O)c3cc4cnccc4[nH]3)cc2)cc1Cl	17.8	12.4			
CC(C)c1cccc(S(=O)(=O)c2ccc(CNC(=O)c3ccc4nccn4c3)cc2)c1 [N-[(4-{[3-(propan-2-yl)benzene]sulfonyl}phenyl)methyl]imidazo[1,2-a]pyridine-6-carboxamide]		3.49	12.4		
CCc1ccccc1S(=O)(=O)c1ccc(CNC(=O)c2cc3ccncc3s2)cc1 [N-({4-[(2-ethylbenzene)sulfonyl]phenyl}methyl)thieno[2,3-c]pyridine-2-carboxamide]	5			2.9	
CCNC(=O)c1cccc(S(=O)(=O)c2ccc(CNC(=O)c3cnc4nccn4c3)cc2)c1		65.5	3.1		
CCOc1cccc(S(=O)(=O)c2ccc(CNC(=O)c3cc4cnccc4[nH]3)cc2)c1F	31.2	11.6			
CN1CCN(c2ccc(S(=O)(=O)c3ccc(CNC(=O)c4ccc5nccn5c4)cc3)cc2)CC1		0.2	1		
CC(C)COc1cccc(S(=O)(=O)c2ccc(CNC(=O)c3cnc4nccn4c3)cc2)c1		13.2	3.9		

From patent publication US12336981B2, “Compounds and compositions for the inhibition of NAMPT” (Valo Health, Inc., priority 2010, dated 2025)
